# Source: US20250296948A1, “SYNTHESIS OF NUCLEOSIDE DERIVATIVES” (Nucana plc, priority 2022, published 2025)
# Tests used:
# [1] = 12 month dry powder stability, HPLC assay; format: physicochemical
# Excerpt: (§1) NUC-3373 prepared according to Example 3, above, was packed into a transparent LDPE bag which was then filled with nitrogen and tied with a strip seal. This bag was then placed into another transparent LDPE bag which was also filled with nitrogen. A silica gel packet was placed between the two bags before the outermost bag was tied with a strip seal. These bags were then placed in a triple laminated sun light barrier bag which was sealed with a heat sealer. The bags were kept in a HDPE container. The NUC-3373 was initially assayed by HPLC after manufacture then after 3, 6, 9 and 12 months of storage.
# [2] = Solution stability in DMA:Saline (80:20 v/v) by UPLC; format: physicochemical; details: 2-8° C.; for Assay / Purity / Total Impurities: DMA:Saline (80:20 v/v) solution, UPLC
# Description: The inventors have found in further work that DMA:Saline (80:20 v/v) solutions of samples obtained according to the process of the invention show no loss of purity or assay, and alpha naphthol impurity up to 12 months at 2-8° C.
# [3] = 6 month dry powder stability, HPLC assay; format: physicochemical; details: Tables 2 and 3, prepared according to the process of the invention
# Excerpt: as §1, with “3 and Comparative Example 4” for “3, above,”, “container.” for “container. The NUC-3373 was initially assayed by HPLC after manufacture then after 3, 6, 9 and 12 months of storage.”
# NUC-3373 was initially assayed by HPLC after manufacture (0 months) then after 1 and 2 and/or 3 and 6 months of storage at 2-8° C., 25° C. or 40° C.
# [4] = Solution stability, alpha naphthol (0.60 RRT) in DMA:Saline (80:20 v/v); format: physicochemical; details: solutions in DMA:Saline (80:20 v/v); particularly at room temperature
# Description: Stability data is also provided in Table 4, which compares the levels of alpha naphthol (0.60 RRT) present in solutions of 400 mg/mL NUC-3373, prepared by Example 3 or 4, above, in DMA:Saline (80:20 v/v) at different temperatures measured over set periods of time. The tested solutions are suitable for infusion and injection and the temperatures and times measured are representative of the environments that solutions suitable for infusion and injection would typically be stored in.
# In Table 4 the two values provided for each temperature at each time period, separated by “/”, represent different preparations (samples) of that synthesis.
# [5] = dog, compared with 5-FU; cited from earlier work
# [6] = test system: a range of cancer models; details: compared with 5-fluorouracil; cited from earlier work
# [7] = test system: tumour cells; details: non-clinical studies, compared with 5-FU and capecitabine; cited from earlier work
smiles,measurement,setting,value
"C[C@H](NP(=O)(OC[C@H]1O[C@@H](n2cc(F)c(=O)[nH]c2=O)CC1O)Oc1cccc2ccccc12)C(=O)OCc1ccccc1 (stereo partly drawn) [NUC-3373, 5-fluoro-2′-deoxyuridine-5′-O-[1-naphthyl (benzoxy-L-alaninyl)] phosphate]",HPLC assay (% w/w on anhydrous and solvent free basis),"[1]; 5 ± 3° C., 3rd month",99.9 % w/w
same,HPLC assay (% w/w on anhydrous and solvent free basis),"[1]; 5 ± 3° C., 6th month",100.9 % w/w
same,HPLC assay (% w/w on anhydrous and solvent free basis),"[1]; 5 ± 3° C., 9th month",101.5 % w/w
same,HPLC assay (% w/w on anhydrous and solvent free basis),"[1]; 5 ± 3° C., 12th month",99.4 % w/w
same,HPLC assay (% w/w on anhydrous and solvent free basis),"[1]; 5 ± 3° C., Initial",99.6 % w/w
same,HPLC assay (% w/w on anhydrous and solvent free basis),"[1]; 25 ± 2° C., 3rd month",99.6 % w/w
same,HPLC assay (% w/w on anhydrous and solvent free basis),"[1]; 25 ± 2° C., 6th month",100.7 % w/w
same,HPLC assay (% w/w on anhydrous and solvent free basis),"[1]; 25 ± 2° C., 9th month",101.5 % w/w
same,HPLC assay (% w/w on anhydrous and solvent free basis),"[1]; 25 ± 2° C., 12th month",99.4 % w/w
same,HPLC assay (% w/w on anhydrous and solvent free basis),"[1]; 25 ± 2° C., Initial",99.6 % w/w
same,time chemically stable,[1]; at both 2-8° C. and 15-30° C.,at least 12 months
same,Assay,[2]; 3rd month,99%
same,Purity,[2]; 3rd month,99.9%
same,Total Impurities,[2]; 3rd month,0.07%
same,Assay,[2]; 6th month,101%
same,Purity,[2]; 6th month,99.9%
same,Total Impurities,[2]; 6th month,0.08%
same,Assay,[2]; 12th month,101%
same,Purity,[2]; 12th month,99.9%
same,Total Impurities,[2]; 12th month,0.09%
same,Assay,[2]; Initial,101%
same,Purity,[2]; Initial,99.9%
same,Total Impurities,[2]; Initial,0.07%
same,time solutions chemically and physically stable,[2]; DMA:Saline (80:20 v/v) solutions,at least 12 months
same,thermal stability compared with other methods of preparation,[3],thermally more stable than those prepared by other methods
same,stability of solutions compared with other methods of preparation,[4],more stable than those prepared by other methods
same,tolerability,[5],significantly better tolerated than 5-FU
same,activity in vitro against a range of cancer models,[6],outstanding and far superior to the results obtained with 5-fluorouracil
same,inhibition of tumour cell growth,[7],much greater inhibition of tumour cell growth
